Results published in US9556417B2, “Reprogramming of cells to a new fate” (The Scripps Research Institute, priority 2010, dated 2017).

How the values were obtained:
[1] = system: tail-tip fibroblasts (TTFs); assay: Neural transdifferentiation of TTFs in presence of JAK inhibitor; type: cell-based, mouse; details: JAK inhibitor 1 0.5 μM from day 4 onward
Experimental: For TTF reprogramming, Lentivirus supernatants were produced and harvested as previously described (Takahashi K. et al. Cell 131(5):861-872 (2007)). Briefly, 293T cells (Invitrogen) were plated at 5×10^6 cells per 100 mm dish and incubated overnight in a 37° C. incubator. Cells were transfected with 4 μg pHAGE2-TetOminiCMV-STEMCCA (29) or FUW-M2rtTA (Addgene) along with packaging mix (1 μg psPAX2 and 3 μg pMD2.G) (Addgene) and FuGENE 6 Transfection Reagent (Roche), according to the manufacturer's instructions. The cells were then cultured in a 32° C. degree incubator, after which supernatants were collected at 48 and 72 hours (post-transfection) and filtered through a 0.45 μm filter (Millipore) before use. TTFs were prepared as previously described (Takahashi, K., et al., Cell 126(4):663-676 (2006)). Briefly, tails (only the final third) were cut into small pieces (less than 0.5 cm) and grown on gelatine-coated plates in MEF medium. Cells that migrated out of the tissue were transferred into new dish and used after one more passage (p3). After two rounds of transduction with STEMCCA and rtTA expressing virus, cells were plated on Geltrex-coated dishes at 2×10^4 cells/cm^2 and reprogrammed as described above. JAK inhibitor 1 (Calbiochem) was added from day 4 onward at 0.5 μM during TTF transdifferentiation. […]

R1 ES cells = assay: Serum-free monolayer cardiac differentiation of ES cells, beating colonies; type: cell-based, mouse; details: early treatment window
Experimental: Having identified the first serum-free monolayer condition for cardiac differentiation of ES cells, we sought to test its efficacy as a platform to discover regulators of cardiomyogenesis. A collection of approximately 200 small molecules and growth factors reported to be influential in developmental processes were assembled. R1 ES cells were grown and plated for differentiation on Matrigel in 24-well plates using the media and growth factors described above. The screening collection was then added and removed from each well at specific time points in order to account for different developmental time windows. The collection was screened at days 0-2, 2-5, and 5-7.
Cells are plated at a density of 200,000 cells/well of a 6-well plate in 2.5 ml of ESGM. 6-well plates are coated overnight at 4° C. with 1 ml of Matrigel (BD Bioscience) diluted 50× from stock concentration. 24 hours after plating, or after sufficient colony size was achieved, cells are switched into chemically defined medium (CDM) and treated with 4 uM BIO (Calbiochem) and 20 ng/ml BMP-4 (R&D). CDM contains RPMI 1640, 0.5×N2, 1×B27 (without Vitamin A), 0.5× Glutamax, 0.55 mM beta-mercaptoethanol, 1× non-essential amino acids, 1× nucleosides. At Day 2, medium is changed, and again CDM containing 4 uM BIO with 20 ng/ml BMP-4 is added to the cells. At Day 5, cells are washed once with PBS and medium is changed to CDM containing 100 ng/ml Dkk-1 (R&D). At Day 7, medium is changed, and again CDM containing 100 ng/ml Dkk-1 is added to the cells. At Day 10, cells are trypsinized (0.05% trypsin) (Approximately 5 minutes at 37° C., or until cells begin to detach) and replated onto gelatin coated 6-well plates in CDM with no additional growth factors. By this time, the cells will have formed tight colonies that will be difficult to disrupt (Supplementary FIG. 2b). […] The trypsin is used primarily to detach the cells rather than to dissociate them to a single cell suspension. It is preferable for the colonies to remain intact. The trypsin is briefly quenched with MEF media, cells are centrifuged, and resuspended in CDM for plating. Medium is refreshed as needed to remove dead cells and debris (every 1 to 2 days).

Brachyury-EGFP ES cell = assay: FACS analysis of mesodermal markers (Brachyury-GFP, Flk-1); type: cell-based, mouse; details: treated day 0-2, harvested day 4.5
Experimental: To ascertain what role calcium and cAMP might be playing in this early stage of cardiac differentiation, FACS was carried out using two markers involved in mesodermal fates. Specifically, a Brachyury-EGFP ES cell (a gift from the Keller lab) was used to identify cells progressing to a primitive streak type population. Further, cells were stained using a Flk-1 antibody to further delineate axial location of the primitive streak type cells. Briefly, cells were treated with small molecules for day 0-2, and harvested at day 4.5 for analysis.
Cells were harvested into a single cell suspension by treatment with 0.05% trypsin, quenched with serum containing medium, and resuspended in FACS buffer: lx PBS (Ca/Mg^2+ free), 1 mM EDTA, 25 mM HEPES pH 7.0, 1% Fetal Bovine Serum. Cells were then filtered with […], and stored at 4° C. until analysis.

Wnt/β-catenin pathway = details: cited from earlier work

SMILES: CC(C)(C)c1nc2c3ccc(F)cc3c3c(=O)[nH]ccc3c2[nH]1 [JAK inhibitor1]
- Pax6 expression of colonies [1]: all remaining colonies homogeneously expressed Pax6
- decrease in number of colonies [1]: around 30%

SMILES: CC(C)NCC(O)COc1cccc2ccccc12 (centres unmarked) [propranolol]
- cardiac differentiation / percentage of beating colonies (R1 ES cells): greatly decreased cardiac potential
- Flk-1 positive portion of GFP+ cells (Brachyury-EGFP ES cell): decreased

SMILES: Cc1ccc2nc(NC(=O)CSc3nc4c(c(=O)n3-c3ccccc3)SCC4)sc2c1 [IWP-2, 2-(3,4,6,7-tetrahydro-4-oxo-3-phenylthieno[3,2-d]pyrimidin-2-ylthio)-N-(6-methylbenzo[d]thiazol-2-yl)acetamide]
- IC50 (Wnt/β-catenin pathway): 27 nM
